The values below come from article PMC5564600 (Oncotarget, 2017).

Molecules are shown by their SMILES.

Experiment in all cases: biochemical
What all share (assay type): binding

Assay [1] addresses T1, panel of 442 kinases (Homo sapiens, UniProt Q15759).
T1 construct: purchased Ambit Biosciences (scanMAXX KINOMEscan)
The following applies: kinase p38-beta; for remaining activity at 1 µM: read-out: % of control at 1 µM.

The target in assay [2] is T2, panel of 442 kinases (Homo sapiens, UniProt P12931).
T2 construct: purchased Ambit Biosciences (scanMAXX KINOMEscan)
T2 sequence (P12931 whole entry): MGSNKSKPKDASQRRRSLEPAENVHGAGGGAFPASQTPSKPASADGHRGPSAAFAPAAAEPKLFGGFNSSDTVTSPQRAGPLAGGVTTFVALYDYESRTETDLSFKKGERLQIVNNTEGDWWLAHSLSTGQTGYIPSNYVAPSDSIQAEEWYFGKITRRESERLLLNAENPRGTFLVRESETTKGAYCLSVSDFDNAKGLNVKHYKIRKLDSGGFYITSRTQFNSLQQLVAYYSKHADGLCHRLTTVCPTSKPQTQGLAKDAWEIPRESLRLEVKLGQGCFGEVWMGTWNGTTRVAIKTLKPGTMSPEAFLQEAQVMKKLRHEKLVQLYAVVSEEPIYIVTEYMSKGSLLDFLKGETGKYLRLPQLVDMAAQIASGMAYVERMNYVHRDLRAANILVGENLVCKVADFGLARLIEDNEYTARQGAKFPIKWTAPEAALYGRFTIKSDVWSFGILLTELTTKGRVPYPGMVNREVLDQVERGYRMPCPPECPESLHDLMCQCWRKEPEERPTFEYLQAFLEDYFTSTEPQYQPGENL
To be noted: kinase SRC; for remaining activity at 1 µM: read-out: SRC (% of control at 1 µM).

In assay [3] the target is T3, panel of 442 kinases (Homo sapiens, UniProt O96013).
T3 construct: purchased Ambit Biosciences (scanMAXX KINOMEscan)
T3 sequence (O96013 whole entry): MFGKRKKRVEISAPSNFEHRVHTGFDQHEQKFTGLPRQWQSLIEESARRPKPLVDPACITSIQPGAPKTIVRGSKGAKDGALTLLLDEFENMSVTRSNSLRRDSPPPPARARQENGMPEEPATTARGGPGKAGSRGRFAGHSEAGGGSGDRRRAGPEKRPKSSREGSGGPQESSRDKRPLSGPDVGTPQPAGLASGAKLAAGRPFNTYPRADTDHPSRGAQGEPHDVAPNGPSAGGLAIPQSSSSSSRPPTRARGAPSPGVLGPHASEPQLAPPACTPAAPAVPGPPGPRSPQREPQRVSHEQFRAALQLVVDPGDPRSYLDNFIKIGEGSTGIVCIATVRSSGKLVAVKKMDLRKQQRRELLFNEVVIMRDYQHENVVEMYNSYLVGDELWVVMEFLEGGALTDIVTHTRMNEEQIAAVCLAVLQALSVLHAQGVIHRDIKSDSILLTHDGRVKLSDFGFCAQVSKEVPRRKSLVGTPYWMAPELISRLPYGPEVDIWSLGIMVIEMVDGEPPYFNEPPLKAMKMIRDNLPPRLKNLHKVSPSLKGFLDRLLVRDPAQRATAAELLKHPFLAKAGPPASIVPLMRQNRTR
The following applies: kinase PAK4; for remaining activity at 1 µM: read-out: % of control at 1 µM.

For assay [4], the target named is T4, panel of 442 kinases (Homo sapiens, UniProt P33981).
T4 construct: purchased Ambit Biosciences (scanMAXX KINOMEscan)
T4 sequence (P33981 1-857): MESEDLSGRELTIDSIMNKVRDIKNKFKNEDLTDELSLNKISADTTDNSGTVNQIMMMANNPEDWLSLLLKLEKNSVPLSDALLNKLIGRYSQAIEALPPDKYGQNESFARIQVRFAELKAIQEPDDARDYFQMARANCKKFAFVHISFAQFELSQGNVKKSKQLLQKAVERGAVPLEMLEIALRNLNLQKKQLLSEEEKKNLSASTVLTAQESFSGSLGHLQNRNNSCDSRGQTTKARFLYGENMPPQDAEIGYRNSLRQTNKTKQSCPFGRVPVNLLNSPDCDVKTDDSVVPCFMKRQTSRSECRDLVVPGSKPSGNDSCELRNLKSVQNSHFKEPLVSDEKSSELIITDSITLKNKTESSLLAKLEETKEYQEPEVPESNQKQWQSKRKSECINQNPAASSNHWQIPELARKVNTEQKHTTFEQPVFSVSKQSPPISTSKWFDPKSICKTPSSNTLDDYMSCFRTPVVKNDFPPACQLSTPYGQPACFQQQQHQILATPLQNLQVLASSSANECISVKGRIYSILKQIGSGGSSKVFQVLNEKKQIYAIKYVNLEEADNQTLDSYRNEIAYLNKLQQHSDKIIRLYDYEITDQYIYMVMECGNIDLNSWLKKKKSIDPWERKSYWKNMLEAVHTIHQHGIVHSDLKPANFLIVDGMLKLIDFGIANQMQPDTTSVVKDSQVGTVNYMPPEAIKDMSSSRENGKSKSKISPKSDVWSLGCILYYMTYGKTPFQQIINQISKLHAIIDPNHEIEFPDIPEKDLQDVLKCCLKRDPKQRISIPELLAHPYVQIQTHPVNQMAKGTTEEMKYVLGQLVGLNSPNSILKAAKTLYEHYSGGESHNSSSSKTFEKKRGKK
The following applies: kinase TTK; for remaining activity at 1 µM: read-out: TTK (% of control at 1 µM).

Assay [5] has as its target T5, panel of 442 kinases (Homo sapiens, UniProt P80192).
T5 construct: purchased Ambit Biosciences (scanMAXX KINOMEscan)
To be noted: kinase MLK1; for remaining activity at 1 µM: read-out: % of control at 1 µM.

For assay [6], the target named is T6, panel of 442 kinases (Homo sapiens, UniProt P49336).
T6 construct: purchased Ambit Biosciences (scanMAXX KINOMEscan)
T6 sequence (P49336 whole entry): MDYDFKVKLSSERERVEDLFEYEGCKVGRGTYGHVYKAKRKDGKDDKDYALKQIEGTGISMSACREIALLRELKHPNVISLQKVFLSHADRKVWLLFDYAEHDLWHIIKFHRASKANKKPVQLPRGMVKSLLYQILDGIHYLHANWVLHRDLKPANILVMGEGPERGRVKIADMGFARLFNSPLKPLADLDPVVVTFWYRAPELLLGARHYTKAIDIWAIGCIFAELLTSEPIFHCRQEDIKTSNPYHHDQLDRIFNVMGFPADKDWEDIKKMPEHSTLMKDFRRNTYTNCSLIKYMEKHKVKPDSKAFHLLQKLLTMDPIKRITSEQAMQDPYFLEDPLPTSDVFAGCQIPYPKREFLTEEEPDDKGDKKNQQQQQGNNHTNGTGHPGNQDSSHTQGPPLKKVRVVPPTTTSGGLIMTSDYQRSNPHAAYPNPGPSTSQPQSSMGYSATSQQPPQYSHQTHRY
The following applies: CDK8; for remaining activity at 1 µM: read-out: % of control at 1 µM.

Assay [7] has as its target T7, panel of 442 kinases (Homo sapiens, UniProt O14936).
T7 construct: purchased Ambit Biosciences (scanMAXX KINOMEscan)
T7 sequence (O14936 1-926): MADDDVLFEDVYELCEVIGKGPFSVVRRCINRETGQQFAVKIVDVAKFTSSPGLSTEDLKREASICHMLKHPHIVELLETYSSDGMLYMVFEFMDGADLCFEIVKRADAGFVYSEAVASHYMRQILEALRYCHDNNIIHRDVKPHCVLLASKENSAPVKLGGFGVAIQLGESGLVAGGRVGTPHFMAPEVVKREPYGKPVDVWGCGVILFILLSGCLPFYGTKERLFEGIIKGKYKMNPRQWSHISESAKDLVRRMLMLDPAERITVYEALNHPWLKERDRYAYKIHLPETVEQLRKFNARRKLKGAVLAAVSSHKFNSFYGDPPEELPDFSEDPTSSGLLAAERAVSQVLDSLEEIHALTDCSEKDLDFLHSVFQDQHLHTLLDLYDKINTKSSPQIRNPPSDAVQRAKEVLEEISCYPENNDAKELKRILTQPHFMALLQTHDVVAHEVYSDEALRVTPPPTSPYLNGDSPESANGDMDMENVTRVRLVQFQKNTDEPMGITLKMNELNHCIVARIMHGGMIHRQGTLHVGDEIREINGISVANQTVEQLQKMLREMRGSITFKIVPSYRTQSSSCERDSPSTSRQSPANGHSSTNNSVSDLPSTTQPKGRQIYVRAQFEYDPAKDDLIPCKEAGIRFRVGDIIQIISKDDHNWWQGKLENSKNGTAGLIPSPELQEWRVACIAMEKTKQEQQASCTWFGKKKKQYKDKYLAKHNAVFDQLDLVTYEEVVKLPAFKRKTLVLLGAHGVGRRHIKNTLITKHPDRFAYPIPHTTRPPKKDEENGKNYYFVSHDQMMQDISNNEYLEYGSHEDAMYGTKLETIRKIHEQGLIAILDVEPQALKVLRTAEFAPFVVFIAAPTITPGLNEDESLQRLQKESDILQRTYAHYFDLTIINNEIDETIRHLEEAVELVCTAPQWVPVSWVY
To be noted: CASK; for remaining activity at 1 µM: read-out: % of control at 1 µM.

The target of assay [8] is T8, panel of 442 kinases (Homo sapiens, UniProt P51617).
T8 construct: purchased Ambit Biosciences (scanMAXX KINOMEscan)
T8 sequence (P51617 whole entry): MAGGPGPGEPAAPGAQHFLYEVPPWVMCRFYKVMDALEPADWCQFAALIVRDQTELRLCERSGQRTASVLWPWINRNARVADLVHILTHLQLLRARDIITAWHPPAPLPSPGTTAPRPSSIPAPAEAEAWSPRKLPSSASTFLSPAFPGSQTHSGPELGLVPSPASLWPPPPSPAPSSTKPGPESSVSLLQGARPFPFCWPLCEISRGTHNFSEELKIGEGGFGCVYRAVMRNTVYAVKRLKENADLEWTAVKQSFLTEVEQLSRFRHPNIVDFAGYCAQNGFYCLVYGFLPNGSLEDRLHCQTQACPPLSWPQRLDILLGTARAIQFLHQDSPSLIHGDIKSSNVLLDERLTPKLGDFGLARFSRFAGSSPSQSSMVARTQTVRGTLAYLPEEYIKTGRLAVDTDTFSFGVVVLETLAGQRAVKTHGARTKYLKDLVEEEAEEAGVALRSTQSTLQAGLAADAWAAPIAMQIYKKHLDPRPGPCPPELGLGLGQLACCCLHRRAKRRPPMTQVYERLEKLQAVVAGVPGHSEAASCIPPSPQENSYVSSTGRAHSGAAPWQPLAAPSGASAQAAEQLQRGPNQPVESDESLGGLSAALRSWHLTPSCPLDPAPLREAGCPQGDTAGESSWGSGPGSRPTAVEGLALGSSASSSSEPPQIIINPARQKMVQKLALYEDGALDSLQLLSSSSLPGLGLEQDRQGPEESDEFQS
The following applies: kinase IRAK1; for remaining activity at 1 µM: read-out: % of control at 1 µM.

The target of assay [9] is T9, panel of 442 kinases (Homo sapiens, UniProt P10721, T670I/V559D).
T9 construct: purchased Ambit Biosciences (scanMAXX KINOMEscan)
T9 sequence (P10721 26-976 V559D/T670I): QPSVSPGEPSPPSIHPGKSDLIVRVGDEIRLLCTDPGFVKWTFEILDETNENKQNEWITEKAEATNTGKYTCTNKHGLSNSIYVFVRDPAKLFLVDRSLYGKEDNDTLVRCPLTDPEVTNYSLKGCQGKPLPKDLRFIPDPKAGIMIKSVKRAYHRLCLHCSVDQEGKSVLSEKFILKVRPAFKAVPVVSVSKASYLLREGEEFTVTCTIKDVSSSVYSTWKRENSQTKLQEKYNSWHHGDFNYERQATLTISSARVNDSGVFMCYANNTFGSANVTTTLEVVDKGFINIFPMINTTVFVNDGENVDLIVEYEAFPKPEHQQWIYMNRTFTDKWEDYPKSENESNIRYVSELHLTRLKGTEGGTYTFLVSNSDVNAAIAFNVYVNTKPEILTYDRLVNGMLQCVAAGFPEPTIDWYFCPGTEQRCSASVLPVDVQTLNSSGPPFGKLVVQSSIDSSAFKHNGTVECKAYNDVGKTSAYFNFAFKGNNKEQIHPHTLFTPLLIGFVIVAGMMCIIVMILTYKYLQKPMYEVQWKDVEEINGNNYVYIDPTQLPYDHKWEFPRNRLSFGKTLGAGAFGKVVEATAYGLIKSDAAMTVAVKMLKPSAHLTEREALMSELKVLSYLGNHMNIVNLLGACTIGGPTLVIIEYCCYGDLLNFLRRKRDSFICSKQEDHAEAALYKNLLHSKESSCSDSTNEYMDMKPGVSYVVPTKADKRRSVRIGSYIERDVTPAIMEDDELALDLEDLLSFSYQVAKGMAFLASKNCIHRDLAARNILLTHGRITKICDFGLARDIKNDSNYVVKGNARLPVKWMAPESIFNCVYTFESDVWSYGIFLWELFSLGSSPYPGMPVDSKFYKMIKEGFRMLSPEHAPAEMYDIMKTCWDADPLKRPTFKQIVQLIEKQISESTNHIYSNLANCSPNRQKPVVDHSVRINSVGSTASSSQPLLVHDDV
The following applies: kinase KIT(V559D,T670I); for remaining activity at 1 µM: read-out: % of control at 1 µM.

Assay [10] concerns the target T10, panel of 442 kinases (Homo sapiens, UniProt P07332).
T10 construct: purchased Ambit Biosciences (scanMAXX KINOMEscan)
To be noted: FES; for remaining activity at 1 µM: read-out: % of control at 1 µM.

Assay [11] concerns the target T11, panel of 442 kinases (Homo sapiens, UniProt Q13233).
T11 construct: purchased Ambit Biosciences (scanMAXX KINOMEscan)
The following applies: kinase MAP3K1; for remaining activity at 1 µM: read-out: % of control at 1 µM.

[12] abbreviates: 10 µM, read-out: % of control at 10 µM.

T1 sequence (Q15759 whole entry): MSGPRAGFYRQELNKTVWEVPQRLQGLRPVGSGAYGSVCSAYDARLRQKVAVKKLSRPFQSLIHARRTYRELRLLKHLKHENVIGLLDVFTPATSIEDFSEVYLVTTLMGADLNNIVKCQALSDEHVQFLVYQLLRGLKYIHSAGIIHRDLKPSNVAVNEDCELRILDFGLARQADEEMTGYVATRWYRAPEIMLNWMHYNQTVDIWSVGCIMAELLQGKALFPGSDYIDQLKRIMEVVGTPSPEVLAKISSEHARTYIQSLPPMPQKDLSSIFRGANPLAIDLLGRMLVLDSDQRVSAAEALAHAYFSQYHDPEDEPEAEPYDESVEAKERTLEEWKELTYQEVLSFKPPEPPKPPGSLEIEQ
T5 sequence (P80192 whole entry): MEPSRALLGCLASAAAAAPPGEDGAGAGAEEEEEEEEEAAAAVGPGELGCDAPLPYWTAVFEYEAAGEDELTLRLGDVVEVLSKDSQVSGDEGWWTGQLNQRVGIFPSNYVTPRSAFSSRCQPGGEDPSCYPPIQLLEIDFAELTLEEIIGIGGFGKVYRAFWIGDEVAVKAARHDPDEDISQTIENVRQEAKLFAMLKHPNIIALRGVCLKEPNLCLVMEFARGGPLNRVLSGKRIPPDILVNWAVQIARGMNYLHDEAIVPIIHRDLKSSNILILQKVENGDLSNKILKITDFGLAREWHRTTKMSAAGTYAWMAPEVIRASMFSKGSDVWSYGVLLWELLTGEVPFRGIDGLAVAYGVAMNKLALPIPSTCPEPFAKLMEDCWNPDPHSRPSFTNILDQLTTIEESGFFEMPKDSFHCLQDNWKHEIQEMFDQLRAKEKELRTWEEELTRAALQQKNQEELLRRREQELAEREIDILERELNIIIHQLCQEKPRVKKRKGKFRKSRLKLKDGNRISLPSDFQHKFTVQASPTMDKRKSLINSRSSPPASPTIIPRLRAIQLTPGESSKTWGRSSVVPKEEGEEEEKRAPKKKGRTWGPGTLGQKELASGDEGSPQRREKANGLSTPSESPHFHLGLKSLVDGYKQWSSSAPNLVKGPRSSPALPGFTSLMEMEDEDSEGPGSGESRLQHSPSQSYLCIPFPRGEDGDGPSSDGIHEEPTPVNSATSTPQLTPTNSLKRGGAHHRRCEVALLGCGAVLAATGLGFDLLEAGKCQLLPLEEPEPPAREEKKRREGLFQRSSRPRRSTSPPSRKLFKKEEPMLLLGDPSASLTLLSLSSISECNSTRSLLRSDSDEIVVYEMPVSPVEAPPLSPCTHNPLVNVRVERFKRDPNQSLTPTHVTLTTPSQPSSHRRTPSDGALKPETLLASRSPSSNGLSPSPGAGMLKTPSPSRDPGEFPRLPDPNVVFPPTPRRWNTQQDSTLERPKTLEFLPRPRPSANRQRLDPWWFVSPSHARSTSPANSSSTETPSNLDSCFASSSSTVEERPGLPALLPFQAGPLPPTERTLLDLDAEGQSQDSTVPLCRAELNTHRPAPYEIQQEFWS

Consider `COc1ncc(-c2ccc3nccc(-c4ccnnc4)c3c2)cc1NS(=O)(=O)c1ccc(F)cc1F` [Omipalisib], for which the remaining activity at 1 µM at panel of 442 kinases [1] amounted to 100%; at panel of 442 kinases [2], 100%; at panel of 442 kinases [3] it was 95%; at panel of 442 kinases [4] it was 76%; at panel of 442 kinases [5], 100%; at panel of 442 kinases [6], 70%. Moreover, the remaining activity at 1 µM is 75% on panel of 442 kinases [7]; 100% at panel of 442 kinases [8]; 100% on panel of 442 kinases [9]; 100% on panel of 442 kinases [10]; 100% at panel of 442 kinases [11].

Regarding `Cn1c(=O)n(-c2ccc(C(C)(C)C#N)cc2)c2c3cc(-c4cnc5ccccc5c4)ccc3ncc21` [Dactolisib, 2-methyl-2-[4-(3-methyl-2-oxo-8-quinolin-3-yl-2,3-dihydroimidazo[4,5-c]quinolin-1-yl)-phenyl] propionitrile], the remaining activity at 1 µM came to 99% on panel of 442 kinases [1]; 94% on panel of 442 kinases [2]; 100% on panel of 442 kinases [3]; 49% on panel of 442 kinases [4]; 86% on panel of 442 kinases [5]; 100% at panel of 442 kinases [6]. Moreover, the remaining activity at 1 µM on panel of 442 kinases [7] was found to be 100%; at panel of 442 kinases [8] it was 54%; at panel of 442 kinases [9], 64%; at panel of 442 kinases [10] it was 92%; on panel of 442 kinases [11], 100%.

On to `Nc1cc(C(F)(F)F)c(-c2cc(N3CCOCC3)nc(N3CCOCC3)n2)cn1` [Buparlisib], for which the remaining activity at 1 µM on panel of 442 kinases [1] was found to be 99%; on panel of 442 kinases [2] it was 94%; at panel of 442 kinases [3], 93%; at panel of 442 kinases [4], 100%; at panel of 442 kinases [5], 92%; on panel of 442 kinases [6], 100%. Moreover, the remaining activity at 1 µM came out at 99% on panel of 442 kinases [7]; 82% on panel of 442 kinases [8]; 90% on panel of 442 kinases [9]; 100% on panel of 442 kinases [10]; 100% at panel of 442 kinases [11]. In addition, the remaining activity at 10 µM on panel of 442 kinases [1] (setting [12]) is 91%; at panel of 442 kinases [2] (10 µM, read-out: SRC (% of control at 10 µM)) it was 100%; on panel of 442 kinases [3] (setting [12]) it was 100%; on panel of 442 kinases [4] (10 µM, read-out: TTK (% of control at 10 µM)), 85%; at panel of 442 kinases [5] (setting [12]) it was 99%; on panel of 442 kinases [6] (setting [12]), 100%. In addition, the remaining activity at 10 µM at panel of 442 kinases [7] (setting [12]) turned out to be 100%; at panel of 442 kinases [8] (setting [12]) it was 71%; at panel of 442 kinases [9] (setting [12]), 70%; on panel of 442 kinases [10] (setting [12]), 100%; at panel of 442 kinases [11] (setting [12]), 100%.

Consider `FC(F)c1nc2ccccc2n1-c1nc(N2CCOCC2)nc(N2CCOCC2)n1` [ZSTK474, 2-(difluoromethyl)-1-[4,6-di(4-morpholinyl)-1,3,5-triazin-2-yl]-1H-benzimidazole], for which the remaining activity at 1 µM came to 70% at panel of 442 kinases [1]; 100% on panel of 442 kinases [2]; 96% at panel of 442 kinases [3]; 100% at panel of 442 kinases [4]; 99% at panel of 442 kinases [5]; 80% on panel of 442 kinases [6]. Further, the remaining activity at 1 µM at panel of 442 kinases [7] worked out at 87%; at panel of 442 kinases [8] it was 92%; on panel of 442 kinases [9], 98%; at panel of 442 kinases [10] it was 100%; on panel of 442 kinases [11] it was 100%.
